Experimental data as given in PubChem BioAssay (NCI).
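Briefly, cells in 96-well plates were exposed to five compound concentrations for 48 h, and endpoints were estimated by linear interpolation. Definition used: TGI = concentration required for complete inhibition of growth.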

Legend:
Test in all cases: growth of human tumour cells (NCI), 48 h
[1] = system: MALME-3M melanoma
[2] = system: RXF-631 renal
[3] = system: RPMI-8226 leukemia
[4] = system: ACHN renal
[5] = system: DLD-1 colon
[6] = system: M19-MEL melanoma
[7] = system: NCI-H522 lung
[8] = system: TK-10 renal
[9] = system: CCRF-CEM leukemia
[10] = system: SK-MEL-28 melanoma
[11] = system: OVCAR-8 ovarian
[12] = system: SF-268 CNS
[13] = system: OVCAR-5 ovarian
[14] = system: SNB-75 CNS
[15] = system: SK-OV-3 ovarian
[16] = system: HOP-18 NSCLC
[17] = system: SF-295 CNS
[18] = system: M14 melanoma
[19] = system: HL-60(TB) leukemia
[20] = system: HT29 colon
[21] = system: 786-0 renal
[22] = system: RXF 393 renal
[23] = system: LXFL 529 NSCLC
[24] = system: SF-539 CNS
[25] = system: K-562 leukemia
[26] = system: UACC-257 melanoma
[27] = system: HCT-15 colon
[28] = system: SN12C renal
[29] = system: A498 renal
[30] = system: SK-MEL-5 melanoma
[31] = system: OVCAR-3 ovarian
[32] = system: DMS 273 small cell lung
[33] = system: A549 NSCLC
[34] = system: KM12 colon
[35] = system: HOP-92 NSCLC
[36] = system: HCC-2998 colon
[37] = system: NCI-H23 lung
[38] = system: MOLT-4 leukemia
[39] = system: SNB-78 CNS
[40] = system: COLO 205 colon
[41] = system: U251 CNS
[42] = system: HCT-116 colon
[43] = system: LOX IMVI melanoma
[44] = system: SW-620 colon
[45] = system: SK-MEL-2 melanoma
[46] = system: OVCAR-4 ovarian
[47] = system: SNB-19 CNS
[48] = system: UO-31 renal
[49] = system: SR leukemia
[50] = system: IGROV1 ovarian
[51] = system: NCI-H460 lung
[52] = system: HOP-62 NSCLC
[53] = system: CAKI-1 renal
[54] = system: MDA-N
[55] = system: MCF7 breast
[56] = system: XF 498 CNS
[57] = system: DMS 114 small cell lung
[58] = system: PC-3 prostate
[59] = system: MDA-MB-231 breast
[60] = system: DU-145 prostate
[61] = system: EKVX NSCLC
[62] = system: NCI/ADR-RES ovarian
[63] = system: KM20L2 colon
[64] = system: T-47D breast
[65] = system: HS 578T breast
[66] = system: MDA-MB-435
[67] = system: BT-549 breast
[68] = system: NCI-H226 lung
[69] = system: UACC-62 melanoma

## Cc1cc(=O)cc2sc3c(C)cccc3nc1-2
[1]
  TGI: > 100 µM
[2]
  TGI: > 100 µM
[3]
  TGI: 97 µM
[4]
  TGI: > 100 µM
[5]
  TGI: 46.1 µM
[6]
  TGI: 36.5 µM
[7]
  TGI: > 100 µM
[8]
  TGI: 77.4 µM
[9]
  TGI: 59.4 µM
[10]
  TGI: > 100 µM
[11]
  TGI: > 100 µM
[12]
  TGI: 26.3 µM
[13]
  TGI: > 100 µM
[14]
  TGI: > 100 µM
[15]
  TGI: > 100 µM
[16]
  TGI: > 100 µM
[17]
  TGI: > 100 µM
[18]
  TGI: 52 µM
[19]
  TGI: 46.8 µM
[20]
  TGI: > 100 µM
[21]
  TGI: 32.2 µM
[22]
  TGI: > 100 µM
[23]
  TGI: 32.9 µM
[24]
  TGI: 73.3 µM
[25]
  TGI: 91.2 µM
[26]
  TGI: > 100 µM
[27]
  TGI: > 100 µM
[28]
  TGI: 78.7 µM
[29]
  TGI: 41.7 µM
[30]
  TGI: 31.8 µM
[31]
  TGI: 52 µM
[32]
  TGI: > 100 µM
[33]
  TGI: > 100 µM
[34]
  TGI: 48.2 µM
[35]
  TGI: 85.9 µM
[36]
  TGI: > 100 µM
[37]
  TGI: > 100 µM
[38]
  TGI: 93.3 µM
[39]
  TGI: > 100 µM
[40]
  TGI: 32.6 µM
[41]
  TGI: > 100 µM
[42]
  TGI: 60.5 µM
[43]
  TGI: 39.2 µM
[44]
  TGI: 17.7 µM
[45]
  TGI: 43.9 µM
[46]
  TGI: 30 µM
[47]
  TGI: > 100 µM
[48]
  TGI: > 100 µM
[49]
  TGI: > 100 µM
[50]
  TGI: 54.9 µM
[51]
  TGI: 57.6 µM
[52]
  TGI: > 100 µM
[53]
  TGI: 83 µM

## C=CC(=O)c1ccc2c(c1)OCCOCCOCCOCCOCCO2
[1]
  TGI: 33.6 µM
[3]
  TGI: > 100 µM
[54]
  TGI: > 100 µM
[4]
  TGI: 31.9 µM
[5]
  TGI: 30.1 µM
[6]
  TGI: 32.2 µM
[7]
  TGI: 24.7 µM
[8]
  TGI: 31.1 µM
[9]
  TGI: > 100 µM
[10]
  TGI: 34 µM
[11]
  TGI: 41.9 µM
[12]
  TGI: > 92.8 µM
[13]
  TGI: > 100 µM
[14]
  TGI: > 91.6 µM
[15]
  TGI: > 100 µM
[55]
  TGI: 32.4 µM
[16]
  TGI: 30.2 µM
[17]
  TGI: > 100 µM
[18]
  TGI: 41.6 µM
[19]
  TGI: > 100 µM
[56]
  TGI: 28.7 µM
[57]
  TGI: 41 µM
[20]
  TGI: > 56.5 µM
[58]
  TGI: 76.5 µM
[59]
  TGI: 36 µM
[21]
  TGI: 31.1 µM
[22]
  TGI: 32.3 µM
[23]
  TGI: 30.8 µM
[60]
  TGI: > 100 µM
[24]
  TGI: 33.2 µM
[25]
  TGI: > 100 µM
[61]
  TGI: 57.9 µM
[62]
  TGI: 54 µM
[26]
  TGI: 35.6 µM
[27]
  TGI: 39.2 µM
[63]
  TGI: > 100 µM
[28]
  TGI: 52.8 µM
[29]
  TGI: > 100 µM
[30]
  TGI: > 100 µM
[31]
  TGI: 35.4 µM
[64]
  TGI: 59.4 µM
[32]
  TGI: 29.1 µM
[33]
  TGI: > 100 µM
[65]
  TGI: > 100 µM
[34]
  TGI: > 100 µM
[66]
  TGI: 43.2 µM
[35]
  TGI: 33.5 µM
[36]
  TGI: > 100 µM
[37]
  TGI: > 64.2 µM
[38]
  TGI: > 100 µM
[39]
  TGI: 35.2 µM
[67]
  TGI: 37.2 µM
[40]
  TGI: 33 µM
[41]
  TGI: > 100 µM
[68]
  TGI: > 100 µM
[42]
  TGI: > 56.2 µM
[69]
  TGI: 92 µM
[43]
  TGI: 35.6 µM
[44]
  TGI: 35.2 µM
[45]
  TGI: > 79.7 µM
[46]
  TGI: 36.3 µM
[47]
  TGI: > 100 µM
[48]
  TGI: > 58 µM
[49]
  TGI: > 100 µM
[50]
  TGI: > 100 µM
[51]
  TGI: > 100 µM
[52]
  TGI: > 100 µM
[53]
  TGI: 68 µM

## Cc1cc2c(cc1C)[n+](=O)c(C(=O)C/C(=N/NC(=O)c1ccccc1O)C(=O)Nc1ccccc1C(C)C)c(C)n2[O-]
[1]
  TGI: > 100 µM
[2]
  TGI: > 100 µM
[4]
  TGI: > 100 µM
[5]
  TGI: > 100 µM
[6]
  TGI: > 100 µM
[7]
  TGI: > 100 µM
[8]
  TGI: > 100 µM
[9]
  TGI: 94.1 µM
[10]
  TGI: > 100 µM
[11]
  TGI: > 100 µM
[12]
  TGI: > 100 µM
[13]
  TGI: > 100 µM
[14]
  TGI: > 100 µM
[15]
  TGI: > 100 µM
[16]
  TGI: > 100 µM
[17]
  TGI: > 100 µM
[18]
  TGI: > 100 µM
[19]
  TGI: 37.9 µM
[57]
  TGI: > 100 µM
[20]
  TGI: > 100 µM
[21]
  TGI: > 100 µM
[22]
  TGI: > 100 µM
[23]
  TGI: > 100 µM
[24]
  TGI: > 100 µM
[25]
  TGI: > 100 µM
[61]
  TGI: > 100 µM
[26]
  TGI: > 100 µM
[27]
  TGI: > 100 µM
[63]
  TGI: > 100 µM
[28]
  TGI: > 100 µM
[29]
  TGI: > 100 µM
[30]
  TGI: > 100 µM
[31]
  TGI: > 100 µM
[32]
  TGI: > 100 µM
[33]
  TGI: > 100 µM
[34]
  TGI: > 100 µM
[36]
  TGI: > 100 µM
[37]
  TGI: > 100 µM
[38]
  TGI: 77.1 µM
[39]
  TGI: > 100 µM
[40]
  TGI: > 100 µM
[41]
  TGI: > 100 µM
[68]
  TGI: > 100 µM
[42]
  TGI: > 100 µM
[69]
  TGI: > 100 µM
[43]
  TGI: > 100 µM
[44]
  TGI: > 100 µM
[45]
  TGI: > 100 µM
[46]
  TGI: > 100 µM
[47]
  TGI: > 100 µM
[50]
  TGI: > 100 µM
[51]
  TGI: > 100 µM
[52]
  TGI: > 100 µM
[53]
  TGI: > 100 µM
